Here are results for two compounds from article PMC12663734, “Sulfonamine-containing aurone derivatives act as inhibitors of intercellular movement of potato virus Y” (iScience, 2025).

One assay has as its target T1, PVY CP (Potato virus Y, UniProt P18247).
T1 construct: 6xHis tag (within the N-terminal pET-32a(+) fusion leader; the Trx and S-tag parts are inferred from the vector and the ~50 kDa band) (N, cleaved yes); made in house; host or cells: Escherichia coli BL21 (DE3) pLysS
As to the kind of experiment: biochemical. The format is binding.

A further assay addresses T2, PVY CP^P154A (Potato virus Y, UniProt P18247, P2950A).
T2 construct: 6xHis tag (within the N-terminal pET-32a(+) fusion leader; the Trx and S-tag parts are inferred from the vector and the ~50 kDa band) (N, cleaved yes); made in house; host or cells: Escherichia coli BL21 (DE3) pLysS
T2 sequence (P18247 2797-3063 P2950A): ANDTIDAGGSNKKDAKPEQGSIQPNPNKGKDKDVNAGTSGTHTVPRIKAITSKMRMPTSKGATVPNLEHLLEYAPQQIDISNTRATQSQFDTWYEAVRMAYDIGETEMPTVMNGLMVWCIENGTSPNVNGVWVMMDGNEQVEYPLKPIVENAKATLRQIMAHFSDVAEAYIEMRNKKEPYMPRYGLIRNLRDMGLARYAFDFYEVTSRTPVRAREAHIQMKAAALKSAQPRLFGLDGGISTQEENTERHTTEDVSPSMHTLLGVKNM
As to the kind of experiment: MST binding to mutant PVY CP^P154A.

A further assay has as its system PVY-GFP. Description: Systemic infection of PVY-GFP in N. benthamiana (GFP fluorescence, RT-qPCR). The conditions noted are these: 500 μg/mL, seven dpi. The format is in vivo, potato virus Y. On the procedure:
To investigate the effect of compound D13 on PVY system infection, we inoculated Nicotiana benthamiana (N. benthamiana) leaves with Agrobacterium carrying the wild-type PVY-GFP. After 24 h, the infiltrated leaves were treated with dimethyl sulfoxide (DMSO) as the negative control group and 500 μg/mL D13 as the treatment group. […] To further confirm reproducibility, an additional independent biological replicate (Figure S4) was uploaded, and the observed trend is consistent with the primary dataset.
Wild-type or mutant viral plasmids were introduced into agrobacterium tumefaciens strain GV3101. Bacterial cultures were grown overnight at 28°C with shaking at 220 rpm, harvested by centrifugation at 8 minutes when OD600 reached 0.6–0.8, and the supernatant was discarded. […] At 7 dpi, GFP fluorescence in leaves was visualized and photographed under 365 nm excitation using a LUYOR handheld UV lamp (LUYOR-3415RG, Luyor Instrument, Shanghai, China). […]
The samples of N. benthamiana infected with Agrobacterium were taken out from the -80°C freezer, small steel beads were added, and they were ground into fine powder with liquid nitrogen to ensure that the cells were completely broken and the nucleic acid components in the cells were released. […] The primers used is recorded in Supporting Information.
Background: Real-time PCR tracks product formation cycle by cycle.

Assay [1] deals with PVY. As to the kind of experiment: Anti-PVY curative activity, half-leaf method. Conditions: Potato virus Y, in Chenopodium amaranticolor, 120 h, read-out: Curative effect (%).
Protocol: (§1) Owing to its non-host resistance to PVY, Chenopodium amaranticolor develops a hypersensitive response (HR) within 48–72 hours post-inoculation, producing sharply delimited chlorotic or necrotic local lesions on the inoculated leaves. The number of lesions correlates linearly and positively with virus titre, thereby serving as a quantitative indicator of viral virulence and of the inactivating efficacy of test compounds. The PVY viral extract was rubbed onto the surface of Nicotiana tabacum K326 leaves. After the characteristic symptoms of leaf wrinkling and inward curling appeared, the leaves were harvested and stored at -80°C, then purified according to previously reported methods.[50]^,[51]^,[52] Host leaves were ground to a fine powder in liquid nitrogen, followed by homogenization on ice in 0.5 M phosphate buffer. An equal volume of chloroform:n-butanol (1:1, v/v) corresponding to 10% of the total buffer volume was added, and the mixture was further homogenized on ice. After centrifugation at 10,000g for 20 minutes (4°C), the supernatant was collected as the crude PVY extract. Using 4–5-leaf-stage Chenopodium amaranticolor maintained under optimal growth conditions, a bioassay was conducted with two plants per treatment to systematically evaluate the curative, protective, and inactivating efficacy of the target compound against PVY.[53] […] Each compound was evaluated in three replicates, and the average value was calculated.
Chenopodium amaranticolor was selected as the dead spot host. Excess leaves were first trimmed off, and a uniform layer of carborundum was applied to the leaf surface. The leaves were then inoculated by rubbing with a 1200-fold diluted virus solution. After more than an hour, the carborundum on the leaf surface was washed off with running water, and a 500 μg/mL drug solution was prepared. […] The treated plants were cultivated in a greenhouse for observation, and the number of dead spots on the leaves was counted after approximately 5 days.
For assay [2], the system named is PVY. As to the kind of experiment: Anti-PVY protective activity, half-leaf method. The conditions noted are these: Potato virus Y, in Chenopodium amaranticolor, 120 h, read-out: Protective effect (%).
Protocol: as §1
In contrast to the antiviral therapeutic activity, the leaves were first treated with the drug solution. A 500 μg/mL drug solution was applied to the right side of the leaves, with the left side serving as a control and treated with a 1% Tween 80 solution. After the leaves had dried under natural conditions, they were placed in a greenhouse for 24 hours before inoculation by rubbing with carborundum, following the same procedures as those for curative activity. After treatment, the plants were maintained in a greenhouse, and the number of local lesions on the inoculated leaves was recorded approximately 5 days.
The test system of assay [3] is PVY. As to the kind of experiment: Anti-PVY inactivating activity, half-leaf method. Conditions: for pest or weed control at 500 µg/mL / EC50: Potato virus Y, in Chenopodium amaranticolor; for pest or weed control at 500 µg/mL: 120 h, read-out: Inactivating effect (%), 500 μg/mL; for EC50: read-out: Inactivating effect EC50.
Protocol: as §1
Two different dilutions of the virus solution (600-fold and 1200-fold) were prepared, along with a 1000 μg/mL drug solution. The drug solution was mixed with the 600-fold diluted virus solution on ice and incubated for 30 minutes. During the incubation period, the left side of the leaves was treated with a 1200-fold diluted virus solution. After the incubation was completed, the mixed system of drug and virus is inoculated on the right side of the leaf. After waiting for the infection to be completed, the carborundum on the leaf surface was washed off with running water, and the plants were then cultivated in a greenhouse. The number of dead spots on the leaves was counted after approximately 5 days.
Where [4] appears, read: host Chenopodium amaranticolor, average of three replicates.

In brackets after ≈: the same amount, converted by molar mass.

T1 sequence (P18247 2797-3063): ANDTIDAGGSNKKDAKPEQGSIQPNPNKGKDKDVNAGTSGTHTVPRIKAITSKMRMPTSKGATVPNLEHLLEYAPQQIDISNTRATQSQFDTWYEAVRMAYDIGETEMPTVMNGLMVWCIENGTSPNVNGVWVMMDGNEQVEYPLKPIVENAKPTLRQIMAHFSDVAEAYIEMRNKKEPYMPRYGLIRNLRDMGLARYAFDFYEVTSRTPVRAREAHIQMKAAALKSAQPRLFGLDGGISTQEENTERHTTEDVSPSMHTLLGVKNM

A word on the Kd: it is the free concentration of one partner at which half of the binding sites on the other are occupied at equilibrium, for simple one-to-one binding. The term EC50 denotes the concentration that produces a half-maximal response. `COc1ccc(/C=C2\Oc3cc(OCC(=O)NS(=O)(=O)c4ccc(Br)cc4)ccc3C2=O)cc1` [D13, (Z)-N-((4-bromophenyl)sulfonyl)-2-((2-(4-methoxybenzylidene)-3-oxo-2,3-dihydrobenzofuran-6-yl)oxy)acetamide]: the Kd on PVY CP was 16 µM; on PVY CP^P154A, 284 µM. Moreover, the “accumulation level of PVY RNA in systemic leaves vs DMSO control (100%)” value in the assay with PVY-GFP (RT-qPCR) amounted to 39.8%. Also, the “green fluorescence in stems and young top leaves” value in the assay with PVY-GFP (UV illumination) was “almost unobservable”. Moreover, the pest or weed control at 500 µg/mL with PVY [1] is 53.2 ± 1.6%; in the assay with PVY [2] it was 47.7 ± 1.4%; in the assay on PVY [3] (setting [4]) it was 60 to 80%. The EC50 in the assay with PVY [3] was 79.5 ± 3.3 mg/L (≈ 146 µM).
On to `NC(=O)c1ncn([C@@H]2O[C@H](CO)[C@@H](O)[C@H]2O)n1` [RBV, ribavirin, reference compound], for which the Kd worked out at 50.5 µM at PVY CP and 210 ± 59.3 µM at PVY CP^P154A. The pest or weed control at 500 µg/mL amounted to 41.9 ± 2.7% in the assay on PVY [1], 44.2 ± 3.1% in the assay on PVY [2] and 59.3% in the assay on PVY [3] (setting [4]). In addition, in the assay with PVY [3] (500 μg/mL, host Chenopodium amaranticolor, average of three replicates), the “Inactivating effect (%)” value is reported as 59.3 ± 3.8%. Further, in the assay with PVY [3], the EC50 was found to be 213 ± 15.4 mg/L (≈ 873 µM).
